Test results: ChEMBL document CHEMBL5046316, “Structure-Based Optimization of a Fragment-like TLR8 Binding Screening Hit to an In Vivo Efficacious TLR7/8 Antagonist” (ACS Med Chem Lett, 2022)

Legend:
Toll-like receptor 9 [1] = target: T1, Toll-like receptor 9 (Homo sapiens, UniProt Q9NR96); test: Antagonist activity at human TLR9 expressed in human whole blood assessed as inhibition of ODN2216 stimulated IFNalpha level preincubated for 30 mins followed by stimulation and measured after 20 hrs by AlphaLISA method; type: tissue-based
T1 sequence (Q9NR96 whole entry): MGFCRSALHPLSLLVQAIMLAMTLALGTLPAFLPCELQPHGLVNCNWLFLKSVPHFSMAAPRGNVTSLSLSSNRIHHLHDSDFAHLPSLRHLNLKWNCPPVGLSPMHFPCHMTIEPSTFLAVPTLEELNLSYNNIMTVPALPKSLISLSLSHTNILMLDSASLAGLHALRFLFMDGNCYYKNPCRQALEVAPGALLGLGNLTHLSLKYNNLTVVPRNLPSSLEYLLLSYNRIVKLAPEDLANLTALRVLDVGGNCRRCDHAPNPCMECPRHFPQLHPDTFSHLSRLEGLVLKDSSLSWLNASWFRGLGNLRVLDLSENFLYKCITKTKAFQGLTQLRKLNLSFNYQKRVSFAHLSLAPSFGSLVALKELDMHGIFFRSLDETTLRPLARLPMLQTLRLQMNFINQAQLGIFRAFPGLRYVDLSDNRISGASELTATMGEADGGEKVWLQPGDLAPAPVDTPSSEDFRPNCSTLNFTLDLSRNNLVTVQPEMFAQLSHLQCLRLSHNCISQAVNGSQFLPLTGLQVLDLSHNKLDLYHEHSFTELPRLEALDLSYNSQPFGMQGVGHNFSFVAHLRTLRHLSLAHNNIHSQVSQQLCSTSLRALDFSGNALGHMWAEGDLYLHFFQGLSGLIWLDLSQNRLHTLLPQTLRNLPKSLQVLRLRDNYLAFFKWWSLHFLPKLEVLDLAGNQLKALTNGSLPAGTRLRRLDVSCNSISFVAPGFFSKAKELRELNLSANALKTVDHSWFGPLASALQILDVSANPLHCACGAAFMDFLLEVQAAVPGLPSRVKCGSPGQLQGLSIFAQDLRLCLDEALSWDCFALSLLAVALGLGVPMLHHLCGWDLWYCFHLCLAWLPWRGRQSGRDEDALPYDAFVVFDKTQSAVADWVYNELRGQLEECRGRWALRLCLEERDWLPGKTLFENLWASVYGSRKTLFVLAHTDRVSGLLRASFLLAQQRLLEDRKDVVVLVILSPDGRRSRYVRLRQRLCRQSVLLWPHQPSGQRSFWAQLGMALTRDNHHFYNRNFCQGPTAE

[2] = Drug exposure in 129Sv mouse blood at 1 mg/kg, po by LC-MS/MS analysis; type: ADME, organism-based; settings: in vivo, read-out: Drug uptake
[3] = Volume of distribution at steady state in Balb/c mouse at 10 mg/kg, po or 1 mg/kg, iv administered as cassette dose measured upto 24 hrs by LC/MS/MS analysis; type: ADME, organism-based; settings: in vivo, read-out: Vdss
Toll-like receptor 7 = target: T2, Toll-like receptor 7 (Mus musculus, UniProt P58681); test: Antagonist activity at mouse TLR7 expressed in human whole blood assessed as inhibition of ssRNA stimulated IFNalpha level preincubated for 30 mins followed by stimulation and measured after 20 hrs by AlphaLISA method; type: tissue-based
T2 sequence (P58681 whole entry): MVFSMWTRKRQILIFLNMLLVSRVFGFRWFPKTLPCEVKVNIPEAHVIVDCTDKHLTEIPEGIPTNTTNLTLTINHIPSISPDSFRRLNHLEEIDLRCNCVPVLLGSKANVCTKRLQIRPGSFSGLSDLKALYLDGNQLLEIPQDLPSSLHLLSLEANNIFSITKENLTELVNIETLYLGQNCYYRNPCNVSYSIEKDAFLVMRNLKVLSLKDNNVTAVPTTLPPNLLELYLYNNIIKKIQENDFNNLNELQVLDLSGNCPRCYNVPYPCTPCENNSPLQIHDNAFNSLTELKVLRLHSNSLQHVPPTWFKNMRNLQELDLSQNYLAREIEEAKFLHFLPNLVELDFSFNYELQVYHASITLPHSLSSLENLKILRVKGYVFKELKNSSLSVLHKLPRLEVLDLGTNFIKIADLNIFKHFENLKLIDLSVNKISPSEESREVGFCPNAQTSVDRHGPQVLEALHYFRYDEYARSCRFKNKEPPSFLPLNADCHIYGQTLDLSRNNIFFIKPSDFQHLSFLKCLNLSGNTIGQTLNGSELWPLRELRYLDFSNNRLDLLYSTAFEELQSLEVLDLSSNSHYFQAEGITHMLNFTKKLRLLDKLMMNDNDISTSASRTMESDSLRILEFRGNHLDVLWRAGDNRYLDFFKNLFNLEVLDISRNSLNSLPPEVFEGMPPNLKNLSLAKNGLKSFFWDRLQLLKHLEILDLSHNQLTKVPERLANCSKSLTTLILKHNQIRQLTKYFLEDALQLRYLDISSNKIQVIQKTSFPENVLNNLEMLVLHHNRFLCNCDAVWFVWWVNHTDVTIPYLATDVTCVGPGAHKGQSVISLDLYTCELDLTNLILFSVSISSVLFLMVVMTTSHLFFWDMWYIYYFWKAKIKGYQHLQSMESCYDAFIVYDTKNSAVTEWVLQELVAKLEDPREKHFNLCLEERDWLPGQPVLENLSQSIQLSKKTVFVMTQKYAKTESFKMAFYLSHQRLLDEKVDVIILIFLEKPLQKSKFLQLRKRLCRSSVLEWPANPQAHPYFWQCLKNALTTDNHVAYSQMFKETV

Cytochrome P450 3A4 = Cytochrome P450 3A4 (Homo sapiens, UniProt P08684); test: Inhibition of CYP3A4 (unknown origin); type: ADME
Toll-like receptor 9 [4] = target: T1, Toll-like receptor 9; test: Antagonist activity at human TLR9 expressed in human PBMC cells assessed as inhibition of ODN2216 stimulated IFNalpha level preincubated for 30 mins followed by stimulation and measured after 20 hrs by AlphaLISA method; type: cell-based
[5] = Octanol/water partition coefficient, logD of compound at pH 7.4 measured after 4 hrs by shake flask method; type: physicochemical
Toll-like receptor 4 = Toll-like receptor 4 (Homo sapiens, UniProt O00206); test: Antagonist activity at human TLR4 expressed in human whole blood assessed as inhibition of LPS stimulated TNF level preincubated for 30 mins followed by stimulation and measured after 20 hrs by multiplate reader assay; type: tissue-based
[6] = Dose normalized Cmax in Balb/c mouse at 10 mg/kg, po and 1 mg/kg, iv administered as cassette dose measured upto 24 hrs by LC/MS/MS analysis; type: ADME, organism-based; settings: in vivo

Toll-like receptor 4, sequence (O00206 whole entry): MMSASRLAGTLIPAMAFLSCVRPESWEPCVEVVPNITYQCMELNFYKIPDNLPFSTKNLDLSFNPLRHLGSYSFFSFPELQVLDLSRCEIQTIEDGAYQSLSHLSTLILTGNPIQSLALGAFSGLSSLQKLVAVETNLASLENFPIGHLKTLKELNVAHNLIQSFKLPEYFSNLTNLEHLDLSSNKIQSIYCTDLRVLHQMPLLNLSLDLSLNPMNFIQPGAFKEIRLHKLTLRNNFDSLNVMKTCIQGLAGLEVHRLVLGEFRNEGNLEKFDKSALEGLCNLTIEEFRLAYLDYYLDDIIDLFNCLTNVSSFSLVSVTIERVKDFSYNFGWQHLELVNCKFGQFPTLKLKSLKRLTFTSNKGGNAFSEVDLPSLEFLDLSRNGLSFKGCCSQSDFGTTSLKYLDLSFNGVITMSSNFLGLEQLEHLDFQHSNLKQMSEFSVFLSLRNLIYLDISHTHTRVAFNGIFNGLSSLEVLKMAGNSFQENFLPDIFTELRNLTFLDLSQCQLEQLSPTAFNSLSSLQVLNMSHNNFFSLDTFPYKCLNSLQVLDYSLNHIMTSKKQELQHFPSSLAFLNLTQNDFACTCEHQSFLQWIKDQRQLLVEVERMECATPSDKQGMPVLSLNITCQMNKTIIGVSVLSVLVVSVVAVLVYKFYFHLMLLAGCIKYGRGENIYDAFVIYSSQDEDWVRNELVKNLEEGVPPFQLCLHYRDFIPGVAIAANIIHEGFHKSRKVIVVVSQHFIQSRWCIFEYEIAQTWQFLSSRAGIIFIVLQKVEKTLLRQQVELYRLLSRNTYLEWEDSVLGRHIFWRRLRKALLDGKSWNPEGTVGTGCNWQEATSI
Cytochrome P450 3A4, sequence (P08684 whole entry): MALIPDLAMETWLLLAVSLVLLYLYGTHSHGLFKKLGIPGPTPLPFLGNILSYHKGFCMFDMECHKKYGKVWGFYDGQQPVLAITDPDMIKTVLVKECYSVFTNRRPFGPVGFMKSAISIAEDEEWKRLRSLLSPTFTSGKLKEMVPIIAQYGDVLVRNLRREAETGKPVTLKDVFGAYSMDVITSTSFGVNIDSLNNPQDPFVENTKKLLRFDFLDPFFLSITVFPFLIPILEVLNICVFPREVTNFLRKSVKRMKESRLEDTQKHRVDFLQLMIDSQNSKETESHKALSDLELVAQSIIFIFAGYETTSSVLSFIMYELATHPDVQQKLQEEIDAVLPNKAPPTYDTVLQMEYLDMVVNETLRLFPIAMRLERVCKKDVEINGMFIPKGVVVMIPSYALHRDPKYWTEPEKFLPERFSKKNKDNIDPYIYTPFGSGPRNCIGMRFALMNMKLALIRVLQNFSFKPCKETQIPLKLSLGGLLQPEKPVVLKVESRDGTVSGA

IC50 (Toll-like receptor 9 [1]): 390 nM
concentration [2]: 8 nM
Vd [3]: 8.4 L/kg
IC50 (Toll-like receptor 7): 2 nM
IC50 (Cytochrome P450 3A4): > 25000 nM
IC50 (Toll-like receptor 9 [4]): > 570 nM
logD at 4 h [5]: 2.7
IC50 (Toll-like receptor 4): > 10000 nM
Cmax/dose [6]: 79 nM/mg/kg
Compound: Cc1cc(-c2cc3[nH]nc(N[C@@H]4CCNC[C@H]4F)c3cc2C2CC2)cc(C)n1
